Columns and labels:
Experiment in all cases: isobutyraldehyde reduction kinetics (A340, initial rates)
Format in all cases: biochemical
[1] = target: T1, Methylocella silvestris BL2 ADH (MsADH), SEQ ID NO: 35 (Methylocella silvestris, UniProt B8ELZ1)
T1 sequence (B8ELZ1 1-345): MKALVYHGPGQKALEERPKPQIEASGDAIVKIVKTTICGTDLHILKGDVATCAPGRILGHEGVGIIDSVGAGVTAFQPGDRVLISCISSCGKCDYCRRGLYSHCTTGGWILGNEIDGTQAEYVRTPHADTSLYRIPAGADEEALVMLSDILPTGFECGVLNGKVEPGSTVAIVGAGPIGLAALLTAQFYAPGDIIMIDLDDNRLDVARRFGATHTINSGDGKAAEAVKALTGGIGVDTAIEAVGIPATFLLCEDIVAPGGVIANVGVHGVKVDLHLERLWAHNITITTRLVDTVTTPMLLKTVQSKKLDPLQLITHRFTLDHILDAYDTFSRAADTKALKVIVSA
Text: (§1) This example describes preparation of ADH-gene constructs for over-expression/purification and measurement of enzyme activities using a time-course assay. Horse-liver ADH (HLADH; A-6128) was purchased from Sigma. Achromobacter xylosoxidans SadB (SadB), Saccharomyces cerevisiae ADH6 (ScADH6) and ADH7 (ScADH7), Entamoeba histolytica ADH1 (EhADH1), Bos Taurus Aldehyde Reductase (BtARD), Beijerinckia indica subsp. Indica ATCC 9039 (BiADH), Clostridium beijerinckii ADH (CbADH), Rana perezi ADH8 (RpADH8), Rattus norvegicus ADH1 (RnADH1), Thermus sp. ATN1 ADH (TADH), Phenylobacterium zucineum HLK1 ADH (PzADH), Methylocella silvestris BL2 ADH (MsADH), Acinetobacter baumannii AYE ADH (AbADH), Geobacillus sp. WCH70 ADH (GbADH), Vanderwaltozyma polyspora DSM 70294 ADH (VpADH), Mucor circinelloides ADH (McADH), and Rhodococcus erythropolis PR4ADH (ReADH) were the candidates for which subclones were prepared for protein expression and purification.
(§2) As a routine practice, the crude extracts and purified proteins were assayed for butanol oxidation activity, in order to ensure that the recombinant proteins were active throughout the purification process. […] Alcohol oxidation activities were carried out in 50 mM sodium phosphate buffer at pH 8.8 and aldehyde reduction reactions were assayed in 190 mM potassium phosphate buffer at pH 7.0. Depending on the nature of reaction being carried out, the enzyme and cofactor stocks were diluted in the reaction buffers at the respective pHs. Either buffer or cell extract prepared from the proprietary E. coli strain (with no ADH plasmid) was used as the negative control for assays with purified protein and cell-free extracts, respectively.
(§3) Kinetic constants of the ADH enzymes were calculated and compared to identify those candidate ADH enzymes with the most desirable properties for the conversion of isobutyraldehyde to isobutanol in the last step of the engineered pathway for isobutanol production. The assays for determining the kinetic constants were carried out using initial rates from the assays described above. […] The concentration of a given enzyme was such that it was conducive for the measurement of initial velocities over a 1-min time course. For each enzyme, Michaelis-Menten plots were generated with a broad range of substrate concentrations. Rough estimates of KM were obtained, based on which the assays were redesigned so as to use substrate concentrations in the range 0.5 to 10 times the KM value, to be able to obtain the appropriate kinetic constants. […] When calculating the KI for isobutanol, the same reactions were carried out in the presence of varying concentrations of isobutanol (generally 0-535 mM) in the reaction (see FIG. 7, for example). Reactions with isobutanol substrate were performed at 30° C. in 50 mM Sodium phosphate buffer, pH 8.8, containing 7.5 mM NAD. The Enzyme kinetics module (Version 1.3) of SigmaPlot 11 (Systat Software, Inc.) was used to fit data to Michaelis-Menten equations and calculate the kinetic constants. The kcat/KM is derived from the individual numbers of kcat and KM and not an experimentally determined value. The ratios of the KM, KI, and kcat/KM for each candidate enzyme as compared to the same parameter for SadB are given in Table 9.
(§4) Seven additional candidate ADH enzymes were synthesized, expressed, and assayed according to methods such as described in Example 2. Kinetic constants obtained for the indicated ADH enzymes (Phenylobacterium zucineum HLK1 ADH (PzADH), Methylocella silvestris BL2 ADH (MsADH), Acinetobacter baumannii AYE ADH (AbADH), Geobacillus sp. WCH70 ADH (GbADH), and Mucor circinelloides ADH (McADH)) are given in Table 8. A comparison of KM, KI, and kcat/KM for each candidate enzyme as compared to the same parameter for SadB are given in Table 9 as a percentage of the values determined (Table 7) for SadB. […]

[2] = target: Acinetobacter baumannii AYE ADH (AbADH), SEQ ID NO: 36
Text: as §1, §2, §3, §4

[3] = target: T2, Phenylobacterium zucineum HLK1 ADH (PzADH), SEQ ID NO: 34 (Phenylobacterium zucineum, UniProt B4RIA4)
T2 sequence (B4RIA4 1-345): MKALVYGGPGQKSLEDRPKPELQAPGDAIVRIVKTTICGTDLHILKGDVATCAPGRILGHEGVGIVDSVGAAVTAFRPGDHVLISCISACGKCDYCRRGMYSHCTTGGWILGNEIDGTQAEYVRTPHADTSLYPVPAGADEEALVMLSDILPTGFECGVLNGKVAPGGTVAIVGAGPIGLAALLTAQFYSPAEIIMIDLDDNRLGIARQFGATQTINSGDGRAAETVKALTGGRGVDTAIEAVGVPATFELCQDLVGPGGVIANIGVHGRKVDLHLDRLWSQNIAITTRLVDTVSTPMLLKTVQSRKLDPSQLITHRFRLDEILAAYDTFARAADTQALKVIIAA
Text: as §1, §2, §3, §4

[4] = target: Mucor circinelloides ADH (McADH), SEQ ID NO: 39 (Mucor circinelloides, UniProt Q66UT6)
Text: as §1, §2, §3, §4

[5] = target: T3, Geobacillus sp. WCH70 ADH (GbADH), SEQ ID NO: 37 (Parageobacillus toebii, UniProt A0A6G9J337)
T3 construct: 346 aa, begins […]) in pBADHisA, N-terminal His tag, expressed in E. coli, purified
Text: as §1, §2, §3, §4

T3 sequence (A0A6G9J337 entry or part of it): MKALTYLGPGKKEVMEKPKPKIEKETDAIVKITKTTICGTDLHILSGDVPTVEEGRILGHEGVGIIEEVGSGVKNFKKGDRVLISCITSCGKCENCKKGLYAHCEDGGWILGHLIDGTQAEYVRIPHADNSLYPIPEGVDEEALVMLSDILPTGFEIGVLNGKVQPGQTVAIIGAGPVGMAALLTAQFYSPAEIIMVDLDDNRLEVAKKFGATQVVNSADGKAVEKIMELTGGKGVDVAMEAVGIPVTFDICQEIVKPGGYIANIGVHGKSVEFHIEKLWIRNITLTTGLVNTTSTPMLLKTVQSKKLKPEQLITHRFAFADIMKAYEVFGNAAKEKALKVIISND
Mucor circinelloides ADH (McADH), SEQ ID NO: 39, sequence (Q66UT6 entry or part of it): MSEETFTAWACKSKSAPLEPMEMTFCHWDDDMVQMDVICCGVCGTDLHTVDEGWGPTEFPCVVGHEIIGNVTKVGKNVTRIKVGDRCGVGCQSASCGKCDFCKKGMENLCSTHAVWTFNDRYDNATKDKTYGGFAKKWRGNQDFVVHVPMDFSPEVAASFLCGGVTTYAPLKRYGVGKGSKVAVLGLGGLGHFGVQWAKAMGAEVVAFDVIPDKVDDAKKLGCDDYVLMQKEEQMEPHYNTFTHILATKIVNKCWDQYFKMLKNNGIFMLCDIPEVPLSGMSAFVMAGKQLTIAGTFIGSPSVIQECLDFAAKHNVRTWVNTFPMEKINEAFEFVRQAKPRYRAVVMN

Structure (SMILES): CC(C)CO [isobutanol, 2-methylpropan-1-ol]
- Ki ([1]; read-out: KI (Isobutanol)): 19 mM
- KI as a percentage of the same parameter for SadB ([1]; relative to SadB): 11%
- KI as a percentage of the same parameter for SadB ([2]; relative to SadB): 169%
- Ki ([3]; read-out: KI (Isobutanol)): 13 mM
- KI as a percentage of the same parameter for SadB ([3]; relative to SadB): 7%
- Ki ([4]; read-out: KI (Isobutanol)): 79 mM
- KI as a percentage of the same parameter for SadB ([4]; relative to SadB): 44%
- Ki ([5]; isobutyraldehyde reduction, varying isobutanol, NADPH specific): 13 mM
- KI as a percentage of the same parameter for SadB ([5]; relative to SadB): 7%

Structure (SMILES): CC(C)C=O [isobutyraldehyde]
- KM as a percentage of the same parameter for SadB ([1]; relative to SadB): 6%
- kcat as a percentage of the same parameter for SadB ([1]; relative to SadB): 30%
- kcat/KM as a percentage of the same parameter for SadB ([1]; relative to SadB): 532%
- Km ([2]; 30° C., pH 7.0, NADH specific, read-out: KM (Isobutanal)): 10 mM
- kcat ([2]; isobutyraldehyde reduction, 30° C., pH 7.0, NADH specific): 99 s⁻¹
- KM as a percentage of the same parameter for SadB ([2]; relative to SadB): 1020%
- kcat as a percentage of the same parameter for SadB ([2]; relative to SadB): 91%
- kcat/KM as a percentage of the same parameter for SadB ([2]; relative to SadB): 9%
- KM as a percentage of the same parameter for SadB ([3]; relative to SadB): 10%
- kcat as a percentage of the same parameter for SadB ([3]; relative to SadB): 28%
- kcat/KM as a percentage of the same parameter for SadB ([3]; relative to SadB): 243%
- KM as a percentage of the same parameter for SadB ([4]; relative to SadB): 3000%
- kcat as a percentage of the same parameter for SadB ([4]; relative to SadB): 138%
- kcat/KM as a percentage of the same parameter for SadB ([4]; relative to SadB): 5%
- KM as a percentage of the same parameter for SadB ([5]; relative to SadB): 44%
- kcat as a percentage of the same parameter for SadB ([5]; relative to SadB): 29%
- kcat/KM as a percentage of the same parameter for SadB ([5]; relative to SadB): 69%
